The assay deals with Nicotinamide phosphoribosyltransferase (Homo sapiens, UniProt P43490). Kind of assay: Biochemical Inhibition Assay.

Molecules are shown by their SMILES.

Nicotinamide phosphoribosyltransferase, sequence (P43490 whole entry): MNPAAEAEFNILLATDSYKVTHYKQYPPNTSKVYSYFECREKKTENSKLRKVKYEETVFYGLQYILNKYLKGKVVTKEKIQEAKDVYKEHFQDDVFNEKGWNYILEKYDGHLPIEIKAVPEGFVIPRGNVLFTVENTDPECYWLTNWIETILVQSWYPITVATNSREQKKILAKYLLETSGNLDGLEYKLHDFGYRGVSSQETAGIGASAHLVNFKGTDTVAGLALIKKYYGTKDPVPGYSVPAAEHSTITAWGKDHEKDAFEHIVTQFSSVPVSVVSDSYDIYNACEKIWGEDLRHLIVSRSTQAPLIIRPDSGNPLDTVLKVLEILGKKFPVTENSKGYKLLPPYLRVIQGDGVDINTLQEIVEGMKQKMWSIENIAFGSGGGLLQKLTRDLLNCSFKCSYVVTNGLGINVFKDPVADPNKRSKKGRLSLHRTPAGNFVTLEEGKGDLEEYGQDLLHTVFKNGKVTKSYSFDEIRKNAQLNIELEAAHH

As to `C[C@H]1C2C[C@H](C[C@@H]1NS(=O)(=O)c1ccc(NC(=O)NCc3cccnc3)cc1)C2(C)C` [US11279687, Compound 86], inhibition was half-maximal at 12 nM (IC50).
